Key:
Details in all cases: 48 h
P12-Ichikawa [1] = test: cell viability relative to DMSO control; higher = less cytotoxic
Procedure, shortened: (§1)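 NOMO1, SEM and P12-Ichikawa leukemia cells spent at least four passages adapting to each medium before use. They were seeded at 500 cells/well (NOMO1, SEM) or 1000 cells/well (P12-Ichikawa) in 5 μl in 1536-well plates and pin-dosed with library compounds in DMSO at 11 threefold steps from 47 μM down to 0.79 nM. After 48 h at 37°C, CellTiter-Glo One luminescence was read. Viability is reported as a percentage of the DMSO wells on each plate, with cell-free wells as background.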

SEM cells [2] = test: as above
Procedure, shortened: as §1

NOMO1 [3] = test: AUC of viability dose-response curve (% viability x log10 dose units); higher = less sensitive
Procedure, shortened: (§2)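 Library compounds in DMSO were applied for 48 h at 37°C at 11 threefold doses (47 μM to 0.79 nM) to medium-adapted leukemia cells in 1536-well plates holding 500 or 1000 cells/well. Luminescence from CellTiter-Glo One was normalised plate by plate against DMSO and cell-free wells. Area under the curve came from trapezoidal integration of a log-logistic fit, after scaling curves that rose above full viability and discarding those that failed quality control. The fit had four parameters and used log10 doses.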

P12-Ichikawa [4] = test: as above
Procedure, shortened: as §2

SEM cells [5] = test: as above
Procedure, shortened: as §2

NOMO1 [6] = test: cell viability relative to DMSO control; higher = less cytotoxic
Procedure, shortened: as §1

Clc1ccccc1C(c1ccccc1)(c1ccccc1)n1cccn1
cell viability [%]
Details | P12-Ichikawa [1] | SEM cells [2]
HPLM + 10% dialyzed FBS, 0.000781 µM | 123 | 104
HPLM + 10% dialyzed FBS, 0.00234 µM | 134 | 121
HPLM + 10% dialyzed FBS, 0.00702 µM | 119 | 119
HPLM + 10% dialyzed FBS, 0.0211 µM | 129 | 123
HPLM + 10% dialyzed FBS, 0.0632 µM | 125 | 113
HPLM + 10% dialyzed FBS, 0.19 µM | 130 | 130
HPLM + 10% dialyzed FBS, 0.569 µM | 122 | 118
HPLM + 10% dialyzed FBS, 1.71 µM | 126 | 124
HPLM + 10% dialyzed FBS, 5.12 µM | 128 | 126
HPLM + 10% dialyzed FBS, 15.4 µM | 116 | 107
HPLM + 10% dialyzed FBS, 46.1 µM | 114 | 121
RPMI 5 mM glucose + 10% dialyzed FBS, 0.000781 µM | – | 124
RPMI 5 mM glucose + 10% dialyzed FBS, 0.00234 µM | – | 129
RPMI 5 mM glucose + 10% dialyzed FBS, 0.00702 µM | – | 124
RPMI 5 mM glucose + 10% dialyzed FBS, 0.0211 µM | – | 130
RPMI 5 mM glucose + 10% dialyzed FBS, 0.0632 µM | – | 138
RPMI 5 mM glucose + 10% dialyzed FBS, 0.19 µM | – | 121
RPMI 5 mM glucose + 10% dialyzed FBS, 0.569 µM | – | 124
RPMI 5 mM glucose + 10% dialyzed FBS, 1.71 µM | – | 122
RPMI 5 mM glucose + 10% dialyzed FBS, 5.12 µM | – | 137
RPMI 5 mM glucose + 10% dialyzed FBS, 15.4 µM | – | 122
RPMI 5 mM glucose + 10% dialyzed FBS, 46.1 µM | – | 144

AUC of viability dose-response curve
Details | NOMO1 [3] | P12-Ichikawa [4] | SEM cells [5]
HPLM + 10% dialyzed FBS | 454 | 470 | 467
RPMI 5 mM glucose + 10% FBS | 445 | 462 | 456
RPMI 5 mM glucose + 10% dialyzed FBS | 457 | 470 | 425

O=[S+]([O-])(O)c1ccc2cc(/N=N/c3cc([S+](=O)([O-])O)c4cccnc4c3O)ccc2c1
cell viability [%]
Details | NOMO1 [6] | P12-Ichikawa [1] | SEM cells [2]
HPLM + 10% dialyzed FBS, 0.000781 µM | 114 | 123 | 115
HPLM + 10% dialyzed FBS, 0.00234 µM | 122 | 123 | 120
HPLM + 10% dialyzed FBS, 0.00702 µM | 133 | 125 | 120
HPLM + 10% dialyzed FBS, 0.0211 µM | 136 | 110 | 28.8
HPLM + 10% dialyzed FBS, 0.0632 µM | 129 | 126 | 133
HPLM + 10% dialyzed FBS, 0.19 µM | 139 | 120 | 132
HPLM + 10% dialyzed FBS, 0.569 µM | 122 | 124 | 126
HPLM + 10% dialyzed FBS, 1.71 µM | 126 | 111 | 117
HPLM + 10% dialyzed FBS, 5.12 µM | 127 | 108 | 120
HPLM + 10% dialyzed FBS, 15.4 µM | 110 | 113 | 119
HPLM + 10% dialyzed FBS, 46.1 µM | 44 | 58.8 | 39.9
RPMI 5 mM glucose + 10% FBS, 0.000781 µM | 116 | 131 | 115
RPMI 5 mM glucose + 10% FBS, 0.00234 µM | 106 | 124 | 124
RPMI 5 mM glucose + 10% FBS, 0.00702 µM | 111 | 121 | 113
RPMI 5 mM glucose + 10% FBS, 0.0211 µM | 109 | 109 | 17.8
RPMI 5 mM glucose + 10% FBS, 0.0632 µM | 119 | 126 | 115
RPMI 5 mM glucose + 10% FBS, 0.19 µM | 119 | 112 | 114
RPMI 5 mM glucose + 10% FBS, 0.569 µM | 109 | 115 | 121
RPMI 5 mM glucose + 10% FBS, 1.71 µM | 110 | 111 | 112
RPMI 5 mM glucose + 10% FBS, 5.12 µM | 101 | 113 | 103
RPMI 5 mM glucose + 10% FBS, 15.4 µM | 110 | 113 | 105
RPMI 5 mM glucose + 10% FBS, 46.1 µM | 44.2 | 59.2 | 25.5
RPMI 5 mM glucose + 10% dialyzed FBS, 0.000781 µM | 121 | 135 | –
RPMI 5 mM glucose + 10% dialyzed FBS, 0.00234 µM | 124 | 125 | –
RPMI 5 mM glucose + 10% dialyzed FBS, 0.00702 µM | 117 | 114 | –
RPMI 5 mM glucose + 10% dialyzed FBS, 0.0211 µM | 115 | 110 | –
RPMI 5 mM glucose + 10% dialyzed FBS, 0.0632 µM | 119 | 114 | –
RPMI 5 mM glucose + 10% dialyzed FBS, 0.19 µM | 113 | 122 | –
RPMI 5 mM glucose + 10% dialyzed FBS, 0.569 µM | 121 | 117 | –
RPMI 5 mM glucose + 10% dialyzed FBS, 1.71 µM | 119 | 114 | –
RPMI 5 mM glucose + 10% dialyzed FBS, 5.12 µM | 110 | 113 | –
RPMI 5 mM glucose + 10% dialyzed FBS, 15.4 µM | 106 | 101 | –
RPMI 5 mM glucose + 10% dialyzed FBS, 46.1 µM | 62.1 | 56.4 | –

AUC of viability dose-response curve
Details | HPLM + 10% dialyzed FBS | RPMI 5 mM glucose + 10% FBS | RPMI 5 mM glucose + 10% dialyzed FBS
NOMO1 [3] | 455 | 462 | 460
P12-Ichikawa [4] | 462 | 463 | 458

CC(=O)OCC(=O)[C@@]12OC(C)(C)O[C@@H]1C[C@H]3[C@@H]4C[C@H](F)C/5=C/C(=O)/C=C\[C@]5(C)[C@@]4(F)[C@@H](O)C[C@]23C
cell viability [%]
Details | NOMO1 [6] | P12-Ichikawa [1] | SEM cells [2]
HPLM + 10% dialyzed FBS, 0.000781 µM | 120 | 107 | 67.2
HPLM + 10% dialyzed FBS, 0.00234 µM | 117 | 119 | 84.1
HPLM + 10% dialyzed FBS, 0.00702 µM | 115 | 111 | 74.8
HPLM + 10% dialyzed FBS, 0.0211 µM | 126 | 117 | 70.2
HPLM + 10% dialyzed FBS, 0.0632 µM | 114 | 110 | 79.9
HPLM + 10% dialyzed FBS, 0.19 µM | 115 | 94.7 | 78.5
HPLM + 10% dialyzed FBS, 0.569 µM | 105 | 76.7 | 21.4
HPLM + 10% dialyzed FBS, 1.71 µM | 115 | 74.5 | 20.6
HPLM + 10% dialyzed FBS, 5.12 µM | 112 | 71.6 | 74.8
HPLM + 10% dialyzed FBS, 15.4 µM | 120 | 74.5 | 89.7
HPLM + 10% dialyzed FBS, 46.1 µM | 122 | 72.4 | 67.8
RPMI 5 mM glucose + 10% FBS, 0.000781 µM | 103 | 106 | 103
RPMI 5 mM glucose + 10% FBS, 0.00234 µM | 107 | 128 | 104
RPMI 5 mM glucose + 10% FBS, 0.00702 µM | 103 | 119 | 85.4
RPMI 5 mM glucose + 10% FBS, 0.0211 µM | 119 | 115 | 94.7
RPMI 5 mM glucose + 10% FBS, 0.0632 µM | 114 | 115 | 106
RPMI 5 mM glucose + 10% FBS, 0.19 µM | 109 | 84.2 | 99.4
RPMI 5 mM glucose + 10% FBS, 0.569 µM | 111 | 68.5 | 24.7
RPMI 5 mM glucose + 10% FBS, 1.71 µM | 113 | 70.8 | 21.1
RPMI 5 mM glucose + 10% FBS, 5.12 µM | 116 | 62.1 | 78.5
RPMI 5 mM glucose + 10% FBS, 15.4 µM | 123 | 64.2 | 78.2
RPMI 5 mM glucose + 10% FBS, 46.1 µM | 128 | 67.5 | 76.3
RPMI 5 mM glucose + 10% dialyzed FBS, 0.000781 µM | 109 | 117 | 92.5
RPMI 5 mM glucose + 10% dialyzed FBS, 0.00234 µM | 108 | 107 | 102
RPMI 5 mM glucose + 10% dialyzed FBS, 0.00702 µM | 104 | 114 | 87.9
RPMI 5 mM glucose + 10% dialyzed FBS, 0.0211 µM | 113 | 107 | 85.2
RPMI 5 mM glucose + 10% dialyzed FBS, 0.0632 µM | 111 | 87.8 | 90
RPMI 5 mM glucose + 10% dialyzed FBS, 0.19 µM | 132 | 84.4 | 68.9
RPMI 5 mM glucose + 10% dialyzed FBS, 0.569 µM | 116 | 62.8 | 15.7
RPMI 5 mM glucose + 10% dialyzed FBS, 1.71 µM | 132 | 57.6 | 10.2
RPMI 5 mM glucose + 10% dialyzed FBS, 5.12 µM | 131 | 55.1 | 106
RPMI 5 mM glucose + 10% dialyzed FBS, 15.4 µM | 121 | 54.7 | 95.4
RPMI 5 mM glucose + 10% dialyzed FBS, 46.1 µM | 144 | 56.9 | 75.4

AUC of viability dose-response curve
Details | HPLM + 10% dialyzed FBS | RPMI 5 mM glucose + 10% FBS | RPMI 5 mM glucose + 10% dialyzed FBS
NOMO1 [3] | 474 | 440 | 420
P12-Ichikawa [4] | 393 | 370 | 344

O=[S+]([O-])(F)Cc1ccccc1
SEM cells [2], HPLM + 10% dialyzed FBS
Details | cell viability [%]
0.000781 µM | 120
0.00234 µM | 122
0.00702 µM | 134
0.0211 µM | 122
0.0632 µM | 125
0.19 µM | 50.5
0.569 µM | 109
1.71 µM | 133
5.12 µM | 114
15.4 µM | 115
46.1 µM | 112

AUC of viability dose-response curve
Details | NOMO1 [3] | P12-Ichikawa [4] | SEM cells [5]
HPLM + 10% dialyzed FBS | 434 | 446 | 455
RPMI 5 mM glucose + 10% FBS | 468 | 448 | 440
RPMI 5 mM glucose + 10% dialyzed FBS | 476 | 442 | 446

OCCn1cc(-c2ccc3c(c2)CC/C3=N\O)c(-c2ccncc2)n1
AUC of viability dose-response curve
Details | NOMO1 [3] | P12-Ichikawa [4] | SEM cells [5]
HPLM + 10% dialyzed FBS | 464 | 444 | 462
RPMI 5 mM glucose + 10% FBS | 468 | 450 | 465
RPMI 5 mM glucose + 10% dialyzed FBS | 472 | 440 | 472

From the supplement of paper PMC11451515
